Source: ChEMBL document CHEMBL1135030, “Antitumor agents. Part 212. Bucidarasins A-C, three new cytotoxic clerodane diterpenes from Bucida buceras” (Bioorg Med Chem Lett, 2002)

Columns and labels:
A549 [1] = experiment: In vitro cytotoxicity against parental and drug resistant lung human tumor cell line A549; type: functional, cell-based
A549 [2] = experiment: Percentage inhibition against parental and drug resistant lung human tumor cell line A549 at 10 uM; type: functional
CAKI-1 [3] = experiment: In vitro cytotoxicity against parental and drug resistant kidney human tumor cell line CAKI; Not active at 10 uM; type: functional, cell-based
HCT-8 [4] = experiment: In vitro cytotoxicity against parental and drug resistant ileococal human tumor cell line HCT-8; Not active at 10 uM; type: functional, cell-based
HOS [5] = experiment: In vitro cytotoxicity against parental and drug resistant bone human tumor cell line HOS; Not active at 10 uM; type: functional, cell-based
SK-MEL-2 [6] = experiment: In vitro cytotoxicity against parental and drug resistant melanoma human tumor cell line SK-MEL-2; type: functional, cell-based
SK-MEL-2 [7] = experiment: Percentage inhibition against parental and drug resistant melanoma human tumor cell line SK-MEL-2 at 10 uM; type: functional
KB [8] = experiment: Percentage inhibition against parental and drug resistant nasopharyngeal human tumor cell line KB at 10 uM; type: functional
1A9/ptx-10 [9] = experiment: In vitro cytotoxicity against parental and drug resistant paclitaxel human tumor cell line IA9-PTX10; Not active at 10 uM; type: functional, cell-based
1A9 [10] = experiment: In vitro cytotoxicity against parental and drug resistant ovarian human tumor cell line IA9; Not active at 10 uM; type: functional, cell-based
KB [11] = experiment: In vitro cytotoxicity against parental and drug resistant camptothecin resistant human tumor cell line KB-CPT; Not active at 10 uM; type: functional, cell-based
KB [12] = experiment: Tested for cytotoxicity against parental and drug resistant etoposide resistant human tumor cell line KB-7d; type: functional, cell-based
KB [13] = experiment: Percentage inhibition against parental and drug resistant etoposide resistant human tumor cell line KB-7d at 10 uM; type: functional
KB [14] = experiment: In vitro cytotoxicity against parental and drug resistant vincristine resistant human tumor cell line KB-VIN; type: functional, cell-based
KB [15] = experiment: Percentage inhibition against parental and drug resistant vincristine resistant human tumor cell line KB-VIN at 10 uM; type: functional
KB [16] = experiment: In vitro cytotoxicity against parental and drug resistant nasopharyngeal human tumor cell line KB; type: functional, cell-based
MCF7 [17] = experiment: In vitro cytotoxicity against parental and drug resistant breast human tumor cell line MCF-7 at 10 uM; type: functional
MCF7 [18] = experiment: In vitro cytotoxicity against parental and drug resistant breast human tumor cell line MCF-7; type: functional, cell-based
U-87 MG [19] = experiment: In vitro cytotoxicity against parental and drug resistant glioblastoma human tumor cell line U87MG; Not active at 10 uM; type: functional, cell-based; conditions: u-87mg atcc
CAKI-1 [20] = experiment: In vitro cytotoxicity against parental and drug resistant kidney human tumor cell line CAKI; type: functional, cell-based
HCT-8 [21] = experiment: In vitro cytotoxicity against parental and drug resistant ileococal human tumor cell line HCT-8; type: functional, cell-based
HOS [22] = experiment: In vitro cytotoxicity against parental and drug resistant bone human tumor cell line HOS; type: functional, cell-based
KB [23] = experiment: In vitro cytotoxicity against parental and drug resistant etoposide resistant human tumor cell line KB-7d; type: functional, cell-based
1A9 [24] = experiment: In vitro cytotoxicity against parental and drug resistant ovarian human tumor cell line IA9; type: functional, cell-based
KB [25] = experiment: In vitro cytotoxicity against parental and drug resistant camptothecin resistant human tumor cell line KB-CPT; type: functional, cell-based
U-87 MG [26] = experiment: In vitro cytotoxicity against parental and drug resistant glioblastoma human tumor cell line U87MG; type: functional, cell-based, U-87MG ATCC
1A9/ptx-10 [27] = experiment: In vitro cytotoxicity against parental and drug resistant paclitaxel human tumor cell line IA9-PTX10; type: functional, cell-based

Structure (SMILES) | IC50 (A549 [1]) [nM] | IC50 (SK-MEL-2 [6]) [nM] | IC50 (KB [14]) [nM] | IC50 (KB [16]) [nM] | IC50 (MCF7 [18]) [nM] | IC50 (CAKI-1 [20]) [nM] | IC50 (HCT-8 [21]) [nM] | IC50 (HOS [22]) [nM] | IC50 (KB [23]) [nM] | IC50 (1A9 [24]) [nM] | IC50 (KB [25]) [nM] | IC50 (U-87 MG [26]) [nM] | IC50 (1A9/ptx-10 [27]) [nM] | other results
C=C/C(C)=C/C[C@@]1(C)[C@@H](C)CC[C@]2(COC(C)=O)C(COC(C)=O)=CC(=O)C[C@@H]21 | > 10000 | > 10000 | > 10000 | > 10000 | > 10000 | – | – | – | – | – | – | – | – | inhibition at 10 µM (A549 [2]): 6%; IC50 (CAKI-1 [3]): Not Active; IC50 (HCT-8 [4]): Not Active; IC50 (HOS [5]): Not Active; inhibition at 10 µM (SK-MEL-2 [7]): 7%; inhibition at 10 µM (KB [8]): 7%; IC50 (1A9/ptx-10 [9]): Not Active; IC50 (1A9 [10]): Not Active; IC50 (KB [11]): Not Active; IC50 (KB [12]): > 10000 nM; inhibition at 10 µM (KB [13]): 23%; inhibition at 10 µM (KB [15]): 22%; inhibition at 10 µM (MCF7 [17]): 12%; IC50 (U-87 MG [19]): Not Active
C=C/C(C)=C/C[C@@]1(C)[C@@H](C)CCC23C(=C[C@@H](OC(=O)C(C)C)C[C@@H]21)[C@H](OC(C)=O)O[C@@H]3OC(C)=O (stereo partly drawn) | 1100 | 1000 | 1000 | 900 | 1100 | 1800 | 1000 | 900 | 900 | 600 | 900 | 1200 | 500 | –
C=C/C(C)=C/C[C@]1(C)[C@H]2C[C@H](OC(=O)C(C)CC)C=C3[C@H](OC(C)=O)O[C@H](OC(C)=O)[C@@]32[C@H](O)C[C@@H]1C (stereo partly drawn) [CASEARLUCIN A] | 1100 | 1000 | 1200 | 1100 | 1800 | 1900 | 1300 | 1200 | 1100 | 1000 | 1100 | 1400 | 1100 | –
C=C/C(C)=C/C[C@@]1(C)[C@@H](C)C[C@@H](O)C23C(=C[C@@H](OC(=O)C(C)C)C[C@@H]21)[C@H](OC(C)=O)O[C@@H]3OC(C)=O (stereo partly drawn) | 500 | 700 | 1100 | 900 | 900 | 1100 | 900 | 800 | 800 | 500 | 800 | 1000 | 500 | –
